Laboratory results taken from patent publication US20100261753A1, “METHODS FOR PREVENTING AND/OR TREATING DEGENERATIVE DISORDERS OF THE CENTRAL NERVOUS SYSTEM” (AMICUS THERAPEUTICS, INC., priority 2009, published 2010).
Counter-ions that a name gives are not always drawn.

What was measured:
[1] = Compound concentration in brain, spleen and plasma samples of the GCase enhancement study; format: in vivo, mice (C57BL/6); conditions: male, C57BL/6, mouse, po, nine doses, 24-hour washout
Protocol: The ability of orally administered test compounds (the hydrochloride salt form of Compound A and Compound B) to elevate GCase levels as compared to reference compound, IFG-tartrate, was assessed in mice. […] Seven animals were used per dose. The dosing solutions were prepared in water. Compounds were administered over 2 weeks as follows: week 1, Mon-Fri (On), Sat-Sun (Off); week 2, Mon-Thu (On); necropsy on Friday. Thus, a total of 9 doses (dosing solutions prepared fresh every day) were given to each mouse, with a 24-hour washout between the last dose and necropsy.
Plasma was collected by spinning blood at 2700 g for 10 minutes at 4° C. Liver, spleen, lung, and brain tissues were removed, washed in cold PBS, blotted dry, flash frozen on dry ice, and stored at −80° C. until analysis. GCase levels were measured by homogenizing approximately 50 mg tissue in 500 μl McIlvane (MI) buffer (100 mM sodium citrate, 200 mM sodium phosphate dibasic, 0.25% sodium taurocholate, and 0.1% Triton X-100, pH 5.2) at pH 5.2 for 3-5 seconds on ice with a micro homogenizer. Homogenates were then incubated at room temperature without and with 2.5 mM conduritol-B-epoxide (CBE) for 30 min. Finally, 3.7 mM 4-methylumbeliferryl-β-glucoside (4-MUG) substrate was added and incubated at 37° C. for 60 min. Reactions were stopped by addition of 0.4 M glycine, pH 10.6. Fluorescence was measured on a plate reader for 1 sec/well using 355 nm excitation and 460 nm emission. Total protein was determined in lysates using the MicroBCA kit according to the manufacturer's instructions. A 4-methylumbelliferone (4-MU) standard curve ranging from 1.0 nM to 50 μM was run in parallel for conversion of raw fluorescence data to absolute GCase activity (in the presence and absence of CBE) and expressed as nanomoles of 4-MU released per milligram of protein per hour (nmol/mg protein/hr). GCase levels and protein levels were calculated using Microsoft Excel (Redmond, Wash.) and GraphPad Prism version 4.02.

GCase = biological target: T1, GCase (Homo sapiens, UniProt P04062); experiment: GCase activity enhancement (EC50, Emax; Table 2B); format: cell-based
T1 sequence (P04062 40-536): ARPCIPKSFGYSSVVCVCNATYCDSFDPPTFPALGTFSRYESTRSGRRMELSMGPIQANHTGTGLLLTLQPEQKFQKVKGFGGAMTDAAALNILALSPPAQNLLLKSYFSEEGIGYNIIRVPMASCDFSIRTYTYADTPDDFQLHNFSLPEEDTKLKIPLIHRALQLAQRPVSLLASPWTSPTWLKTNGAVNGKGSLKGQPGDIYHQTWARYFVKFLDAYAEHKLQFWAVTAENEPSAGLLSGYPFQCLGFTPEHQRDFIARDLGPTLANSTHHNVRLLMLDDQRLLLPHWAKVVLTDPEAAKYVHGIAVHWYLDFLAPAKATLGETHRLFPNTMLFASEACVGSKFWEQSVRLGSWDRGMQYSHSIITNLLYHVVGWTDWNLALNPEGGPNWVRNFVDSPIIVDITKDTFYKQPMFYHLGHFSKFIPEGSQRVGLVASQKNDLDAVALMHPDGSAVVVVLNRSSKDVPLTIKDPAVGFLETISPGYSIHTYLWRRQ

Cl.O[C@@H]1[C@@H](CF)CNC[C@H]1O [Compound A-HCl, (3R,4R,5R)-5-(fluoromethyl)piperidine-3,4-diol hydrochloride]
melting point: 200 to 202 °C

OC[C@H]1CNC[C@@H](O)[C@@H]1O [IFG, (3R,4R,5R)-5-(hydroxymethyl)-3,4-piperidinediol, reference compound]
concentration at 24 h ([1]; brain, 10 mg/kg, 10 mg/kg p.o., Table 4A): 49 ± 2.4 nM
concentration at 24 h ([1]; brain, 100 mg/kg, 100 mg/kg p.o., Table 3A): 182 ± 13 nM
concentration at 24 h ([1]; brain, 100 mg/kg, 100 mg/kg p.o., Table 4A): 287 ± 74 nM
concentration at 24 h ([1]; plasma, 10 mg/kg, 10 mg/kg p.o., Table 4C): 67 ± 10 nM
concentration at 24 h ([1]; plasma, 100 mg/kg, 100 mg/kg p.o., Table 3C): 330 ± 36 nM
concentration at 24 h ([1]; plasma, 100 mg/kg, 100 mg/kg p.o., Table 4C): 852 ± 134 nM
concentration at 24 h ([1]; spleen, 10 mg/kg, 10 mg/kg p.o., Table 4B): 150 ± 12 nM
concentration at 24 h ([1]; spleen, 100 mg/kg, 100 mg/kg p.o., Table 3B): 711 ± 100 nM
concentration at 24 h ([1]; spleen, 100 mg/kg, 100 mg/kg p.o., Table 4B): 1140 ± 220 nM

OC[C@H]1CNC[C@@H](O)[C@@H]1O [IFG-Tartrate, Isofagomine tartrate, reference compound]
Emax (GCase): 93.6 ± 2.5%
